{
  "source": "patent US7358074B2",
  "about": "“Human phosphatase RET31, and variants thereof” (Bristol-Myers Squibb Company, priority 2000, dated 2008)",
  "key": {"[1]": {"test_system": "RET31", "assay": "para-nitrophenylphosphate (pNPP) phosphatase activity assay of purified RET31-GST fusion proteins", "format": "biochemical, human", "description": "The bars represent the average of triplicate determinations, and the standard deviations are as shown. Each protein preparation was assayed in the absence and presence of 2 mM orthovanadate (”-van”). […] The phosphatase assays were performed as described in Example 57 herein.\nIn addition to assaying the full-length RET31 polypeptide (SEQ ID NO:109), a C-terminal deletion of RET31 was also assayed corresponding to amino acids M1 to T302 of SEQ ID NO:109)."}, "[2]": {"target": "T1, full-length RET31 (Homo sapiens, UniProt Q9BY84, C584R/N284S/T302A)", "T1 construct": "made in house", "T1 sequence (Q9BY84 with tags, fused parts or gaps N284S/T302A/C584R)": "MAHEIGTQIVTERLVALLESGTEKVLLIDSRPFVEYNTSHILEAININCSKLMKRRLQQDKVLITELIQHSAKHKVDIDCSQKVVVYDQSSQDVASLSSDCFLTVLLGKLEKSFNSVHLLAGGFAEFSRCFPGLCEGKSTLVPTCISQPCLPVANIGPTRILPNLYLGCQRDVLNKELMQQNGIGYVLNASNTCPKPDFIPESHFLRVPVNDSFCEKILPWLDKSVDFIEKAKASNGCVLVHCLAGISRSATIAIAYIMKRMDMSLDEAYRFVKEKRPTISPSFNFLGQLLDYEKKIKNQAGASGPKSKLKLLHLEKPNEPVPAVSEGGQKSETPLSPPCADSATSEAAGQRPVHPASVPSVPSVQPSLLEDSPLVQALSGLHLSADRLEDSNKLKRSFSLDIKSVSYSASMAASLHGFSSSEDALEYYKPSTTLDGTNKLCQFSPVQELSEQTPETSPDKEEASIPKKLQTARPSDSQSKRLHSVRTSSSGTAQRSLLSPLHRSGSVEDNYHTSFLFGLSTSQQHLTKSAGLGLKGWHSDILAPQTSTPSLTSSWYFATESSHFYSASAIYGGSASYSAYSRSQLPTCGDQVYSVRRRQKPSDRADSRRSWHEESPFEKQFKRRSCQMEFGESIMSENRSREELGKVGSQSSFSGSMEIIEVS", "assay": "phosphatase activity assay, hydrolysis of para-nitrophenylphosphate (pNPP)", "format": "biochemical", "conditions": "2 mM orthovanadate; pNPP substrate; FIG. 36", "description": "(§1) The phosphatase activity for the full-length RET31 and the M1 to T302 C-terminal RET31 GST fusion proteins were measured by assaying the ability of the proteins to hydrolyze para-nitrophenylphosphate, a compound known to be a substrate for phosphatases, as described in Krejsa, C. et al., J. Biol. Chem. Vol. 272, p. 11541-11549, 1997 (which is hereby incorporated in its entirety herein). The proteins are incubated with para-nitrophenylphosphate in a solution containing 10 mM imidazole, pH 7.0, 1 mM EDTA, 2 mM dithiothreitol, and 5 μg/ml BSA for 2 hours with and without sodium orthovanadate (Fisher) prepared in distilled water. The progress of the phosphatase reaction in a 96-well format was monitored by the OD405 nm on a plate reader (Molecular Devices) at 10-minute intervals in the kinetic mode.\n(§2) The RET31-GST full length (FL), M1 to T302 C-terminal RET31-GST (trunc), or GST alone were purified and assayed for cleavage of para-nitrophenylphosphate (pNPP). The bars represent the average of triplicate determinations, and the standard deviations are as shown. Each protein preparation was assayed in the absence and presence of 2 mM of the phosphatase inhibitor orthovanadate. In addition, the full length and truncated protein phosphatase activity was blocked by the phosphatase inhibitor vanadate, as shown."}, "[3]": {"target": "T2, M1 to T302 C-terminal RET31 (Homo sapiens, UniProt Q9BY84, I6V/M5I/N284S)", "T2 construct": "made in house", "T2 sequence (Q9BY84 1-302 M5I/I6V/N284S)": "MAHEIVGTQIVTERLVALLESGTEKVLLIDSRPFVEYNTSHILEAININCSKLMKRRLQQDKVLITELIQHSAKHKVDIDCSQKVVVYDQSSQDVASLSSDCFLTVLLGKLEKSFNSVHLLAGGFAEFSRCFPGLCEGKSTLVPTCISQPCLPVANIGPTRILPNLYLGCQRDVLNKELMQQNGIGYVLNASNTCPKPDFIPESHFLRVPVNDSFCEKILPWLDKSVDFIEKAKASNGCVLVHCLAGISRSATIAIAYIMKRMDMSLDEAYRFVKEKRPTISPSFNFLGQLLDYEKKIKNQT", "assay": "phosphatase activity assay, hydrolysis of para-nitrophenylphosphate (pNPP)", "format": "biochemical", "conditions": "2 mM orthovanadate; pNPP substrate; FIG. 36", "description": "as §1, §2"}, "[4]": {"test_system": "human lung fibroblasts", "assay": "human lung fibroblast proliferation assay, Alamar Blue", "format": "cell-based", "conditions": "3 days in basal medium, expected (should show)", "description": "Human lung fibroblasts are obtained from Clonetics (San Diego, Calif.) and maintained in growth media from Clonetics. Dermal microvascular endothelial cells are obtained from Cell Applications (San Diego, Calif.). For proliferation assays, the human lung fibroblasts and dermal microvascular endothelial cells can be cultured at 5,000 cells/well in a 96-well plate for one day in growth medium. The cells are then incubated for one day in 0.1% BSA basal medium. After replacing the medium with fresh 0.1% BSA medium, the cells are incubated with the test proteins for 3 days. Alamar Blue (Alamar Biosciences, Sacramento, Calif.) is added to each well to a final concentration of 10%. The cells are incubated for 4 hr. Cell viability is measured by reading in a CytoFluor fluorescence reader. For the PGE2 assays, the human lung fibroblasts are cultured at 5,000 cells/well in a 96-well plate for one day. […]"}},
  "note": "Entries after “also recorded” stand apart in the source; their conditions may differ.",
  "data": [
    {"molecule": "[O]=[V]([O-])([O-])[O-]", "note": "[vanadate]", "values": [
      {"measurement": "inhibition of RET31 phosphatase activity", "setting": "[1]; 2 mM orthovanadate, full-length and M1 to T302 RET31-GST", "value": "blocked; also recorded: specifically inhibited"}
    ]},
    {"molecule": "[Na+].[Na+].[Na+].[O]=[V]([O-])([O-])[O-]", "note": "[orthovanadate, sodium orthovanadate]", "values": [
      {"measurement": "effect of phosphatase inhibitor on phosphatase activity", "setting": "[2]", "value": "blocked"},
      {"measurement": "effect of phosphatase inhibitor on phosphatase activity", "setting": "[3]", "value": "blocked"}
    ]},
    {"molecule": "FGF-2: FGF-2 (basic FGF), comparison growth factor", "values": [
      {"measurement": "concentration showing stimulation of growth of fibroblasts", "setting": "[4]", "value": "10 to 2500", "unit": "ng/mL"}
    ]},
    {"molecule": "M1 to T302 RET31 C-terminal deletion mutant: C-terminal deletion of RET31 corresponding to amino acids M1 to T302 of SEQ ID NO:109, GST fusion (protein, listed as Homo sapiens, GST fusion partner lacks entry) MAHEMIGTQIVTERLVALLESGTEKVLLIDSRPFVEYNTSHILEAININCSKLMKRRLQQDKVLITELIQHSAKHKVDIDCSQKVVVYDQSSQDVASLSSDCFLTVLLGKLEKSFNSVHLLAGGFAEFSRCFPGLCEGKSTLVPTCISQPCLPVANIGPTRILPNLYLGCQRDVLNKELIQQNGIGYVLNASYTCPKPDFIPESHFLRVPVNDSFCEKILPWLDKSVDFIEKAKASNGCVLVHCLAGISRSATIAIAYIMKRMDMSLDEAYRFVKEKRPTISPNFNFLGQLLDYEKKIKNQT", "values": [
      {"measurement": "increase in phosphatase activity relative to the full-length RET31 polypeptide", "setting": "[1]; pNPP substrate, GST fusion proteins", "value": "five fold increase"},
      {"measurement": "phosphatase activity via cleavage of the NPP substrate", "setting": "[1]; purified GST fusion protein, pNPP substrate, compared to purified GST alone", "value": "demonstrated phosphatase activity"}
    ]}
  ]
}
